Laboratory results as given in patent US11034692B1 (Genentech, Inc., priority 2017, dated 2021).

Target: HPK1 (Homo sapiens, UniProt Q92918)
Test: HPK1 Lantha Binding Assay ("Lanth")
Conditions: Table B1-1, read-out: HPK1 Ki (μM) (Lanth)
In short: (§1)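 TR-FRET tracer displacement with 2 nM GST-tagged kinase, 2 nM Eu-anti-GST antibody and 15 nM Tracer222 at 23 C. Enzyme–antibody preincubated 1 h with compound, then tracer added for 1 h; 340 nm excitation, 615/665 nm emission. Ki from Morrison fit over an 11-point 5-fold dilution.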

Chain of HPK1 (Homo sapiens, UniProt Q92918) (Q92918 whole entry, looked up): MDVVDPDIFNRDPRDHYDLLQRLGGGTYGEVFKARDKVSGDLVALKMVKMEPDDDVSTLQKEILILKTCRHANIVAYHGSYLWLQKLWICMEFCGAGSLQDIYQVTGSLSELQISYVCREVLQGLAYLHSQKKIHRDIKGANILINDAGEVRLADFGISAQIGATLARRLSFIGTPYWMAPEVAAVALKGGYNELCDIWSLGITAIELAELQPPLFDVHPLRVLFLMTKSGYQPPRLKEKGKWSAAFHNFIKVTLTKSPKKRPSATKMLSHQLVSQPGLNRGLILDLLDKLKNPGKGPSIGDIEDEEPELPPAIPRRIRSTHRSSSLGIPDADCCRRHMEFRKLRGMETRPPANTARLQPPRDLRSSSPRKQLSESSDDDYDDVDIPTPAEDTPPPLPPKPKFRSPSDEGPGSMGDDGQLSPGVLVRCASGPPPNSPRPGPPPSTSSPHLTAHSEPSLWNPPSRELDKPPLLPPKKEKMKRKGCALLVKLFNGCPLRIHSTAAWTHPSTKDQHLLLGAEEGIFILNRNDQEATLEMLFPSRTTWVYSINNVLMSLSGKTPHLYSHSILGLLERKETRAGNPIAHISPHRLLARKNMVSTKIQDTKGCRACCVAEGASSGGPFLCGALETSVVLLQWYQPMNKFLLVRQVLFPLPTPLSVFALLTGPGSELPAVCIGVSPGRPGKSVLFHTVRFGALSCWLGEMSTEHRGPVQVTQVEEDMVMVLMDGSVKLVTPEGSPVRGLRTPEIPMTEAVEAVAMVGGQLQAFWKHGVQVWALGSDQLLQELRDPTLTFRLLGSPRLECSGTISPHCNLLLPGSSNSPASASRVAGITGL

Ki [µM]	Structure (SMILES)
0.00156	Cc1c(-c2cc3cc(NC(=O)[C@@H]4C[C@@H]4F)ncc3c(N)n2)cnn1C (racemic) [Compound 2, (±)-cis-N-(8-amino-6-(1,5-dimethyl-1H-pyrazol-4-yl)-2,7-naphthyridin-3-yl)-2-fluorocyclopropanecarboxamide]
0.00514	Cc1nn(C)c(C)c1-c1cc2cc(NC(=O)[C@@H]3C[C@@H]3F)ncc2c(N)n1 (racemic) [Compound 3, (±)-cis-N-(8-amino-6-(1,3,5-trimethyl-1H-pyrazol-4-yl)-2,7-naphthyridin-3-yl)-2-fluorocyclopropanecarboxamide]
0.00164	Cn1cc(-c2cc3cc(NC(=O)[C@H]4C[C@@H]4F)ncc3c(N)n2)cn1 (racemic) [Compound 8, trans-N-(8-amino-6-(1-methyl-1H-pyrazol-4-yl)-2,7-naphthyridin-3-yl)-2-fluorocyclopropanecarboxamide]
0.00721	Cc1cc(N)ncc1-c1cc2cc(NC(=O)[C@@H]3C[C@@H]3F)ncc2c(N)n1 (racemic) [Compound 16, (±)-cis-N-(8-amino-6-(6-amino-4-methylpyridin-3-yl)-2,7-naphthyridin-3-yl)-2-fluorocyclopropanecarboxamide]
0.00276	N#C[C@@H]1C[C@@H]1C(=O)Nc1cc2cc(-c3cncc4[nH]ccc34)nc(N)c2cn1 (racemic) [Compound 21, (±)-cis-N-(8-amino-6-(1H-pyrrolo[2,3-c]pyridin-4-yl)-2,7-naphthyridin-3-yl)-2-cyanocyclopropanecarboxamide]
0.034	CCc1ccncc1-c1cc2cc(NC(=O)NC(C)C(N)=O)ncc2c(N)n1 (racemic) [Compound 34, 2-[[8-amino-6-(4-ethyl-3-pyridyl)-2,7-naphthyridin-3-yl]carbamoylamino]propanamide]
0.0484	Cc1ccncc1-c1cc2cc(NC(=O)C(C)C#N)ncc2c(N)n1 (racemic) [Compound 38, N-(8-amino-6-(4-methylpyridin-3-yl)-2,7-naphthyridin-3-yl)-2-cyanopropanamide]
0.00205	Cc1ccncc1-c1cc2cc(NC(=O)[C@@H]3C[C@H]3C#N)ncc2c(N)n1 (racemic) [Compound 43, trans-N-(8-amino-6-(4-methylpyridin-3-yl)-2,7-naphthyridin-3-yl)-2-cyanocyclopropanecarboxamide]
0.00152	Nc1nc(-c2cnccc2C2CC2)cc2cc(NC(=O)[C@@H]3C[C@@H]3F)ncc12 (racemic) [Compound 46, (±)-cis-N-(8-amino-6-(4-cyclopropylpyridin-3-yl)-2,7-naphthyridin-3-yl)-2-fluorocyclopropanecarboxamide]
0.0103	Cc1cc(C(N)=O)ccc1-c1cc2cc(NC(=O)[C@@H]3C[C@@H]3F)ncc2c(N)n1 (racemic) [Compound 48, (±)-4-(1-amino-6-((cis)-2-fluorocyclopropanecarboxamido)-2,7-naphthyridin-3-yl)-3-methylbenzamide]
0.00682	CNC(=O)c1ccc(-c2cc3cc(NC(=O)[C@@H]4C[C@@H]4F)ncc3c(N)n2)c(C)c1 (racemic) [Compound 49, 4-(1-amino-6-((cis)-2-fluorocyclopropanecarboxamido)-2,7-naphthyridin-3-yl)-N,3-dimethylbenzamide]
0.0059	CC(C)c1ccncc1-c1cc2cc(NC(=O)[C@H]3C[C@@H]3C#N)ncc2c(N)n1 (racemic) [Compound 50, trans-N-(8-amino-6-(4-isopropylpyridin-3-yl)-2,7-naphthyridin-3-yl)-2-cyanocyclopropanecarboxamide]
0.0013	Cc1ccncc1-c1cc2cc(NC(=O)[C@@H]3C[C@H]3F)ncc2c(N)n1 (racemic) [Compound 51, (±)-trans-N-(8-amino-6-(4-methylpyridin-3-yl)-2,7-naphthyridin-3-yl)-2-fluorocyclopropanecarboxamide]
0.00298	Cc1c(-c2cc3cc(NC(=O)[C@@H]4C[C@@H]4F)ncc3c(N)n2)cnc2nc[nH]c12 (racemic) [Compound 52, (±)-cis-N-(8-amino-6-(7-methyl-1H-imidazo [4,5-b]pyridin-6-yl)-2,7-naphthyridin-3-yl)-2-fluorocyclopropanecarboxamide]

Target: HPK1
Test: HPK1 Lantha Binding Assay ("Lanth")
Conditions: Table B1-1, read-out: HPK1 Ki (μM) (Lanth)
In short: as §1

Structure (SMILES)	Ki [nM]
Cc1ccncc1-c1cc2cc(NC(=O)[C@@H]3C[C@H]3C3CCOCC3)ncc2c(N)n1 [Compound 325, (1R,2S)—N-[8-amino-6-(4-methylpyridin-3-yl)-2,7-naphthyridin-3-yl]-2-(oxan-4-yl)cyclopropane-1-carboxamide]	3.43
Cc1ccncc1-c1cc2cc(NC(=O)[C@@H]3[C@@H](C)[C@H]3c3cnn(C)c3)ncc2c(N)n1 [Compound 326, (1R,2S,3R)—N-[8-amino-6-(4-methylpyridin-3-yl)-2,7-naphthyridin-3-yl]-2-methyl-3-(1-methyl-1H-pyrazol-4-yl)cyclopropane-1-carboxamide]	0.074
Cc1ccncc1-c1cc2cc(NC(=O)[C@H]3[C@H](C)[C@@H]3c3cnn(C)c3)ncc2c(N)n1 [Compound 327, (1S,2R,3S)—N-[8-amino-6-(4-methylpyridin-3-yl)-2,7-naphthyridin-3-yl]-2-methyl-3-(1-methyl-1H-pyrazol-4-yl)cyclopropane-1-carboxamide]	1.43
Cc1ccncc1-c1cc2cc(NC(=O)[C@@H]3[C@H](C)[C@H]3c3cnn(C)c3)ncc2c(N)n1 [Compound 329, (1R,2R,3R)—N-[8-amino-6-(4-methylpyridin-3-yl)-2,7-naphthyridin-3-yl]-2-methyl-3-(1-methyl-1H-pyrazol-4-yl)cyclopropane-1-carboxamide]	2.65
COCCn1cc([C@@H]2C[C@H]2C(=O)Nc2cc3cc(-c4cnccc4C)nc(N)c3cn2)cn1 [Compound 330, (1R,2R)—N-(8-amino-6-(4-methylpyridin-3-yl)-2,7-naphthyridin-3-yl)-2-(1-(2-methoxyethyl)-1H-pyrazol-4-yl)cyclopropanecarboxamide]	< 0.02

Results, then the compound that gave them:

Ki [nM]	Structure (SMILES)
1.12	COCCn1cc([C@H]2C[C@@H]2C(=O)Nc2cc3cc(-c4cnccc4C)nc(N)c3cn2)cn1 [Compound 331, (1S,2S)—N-(8-amino-6-(4-methylpyridin-3-yl)-2,7-naphthyridin-3-yl)-2-(1-(2-methoxyethyl)-1H-pyrazol-4-yl)cyclopropanecarboxamide]
0.432	Cn1cc([C@@H]2C[C@H]2C(=O)Nc2cc3c(Cl)c(-c4cnccc4CCO)nc(N)c3cn2)cn1 [Compound 333, (1R,2R)—N-(8-amino-5-chloro-6-(4-(2-hydroxyethyl)pyridin-3-yl)-2,7-naphthyridin-3-yl)-2-(1-methyl-1H-pyrazol-4-yl)cyclopropanecarboxamide]
20.4	Cc1cc(-c2ccccc2)ncc1-c1cc2cc(NC(=O)[C@@H]3C[C@H]3CC#N)ncc2c(N)n1 [Compound 334, (1R,2S)—N-[8-amino-6-(4-methyl-6-phenylpyridin-3-yl)-2,7-naphthyridin-3-yl]-2-(cyanomethyl)cyclopropane-1-carboxamide]
4.41	Cc1cc(-c2ccccc2)ncc1-c1cc2cc(NC(=O)[C@H]3C[C@@H]3CC#N)ncc2c(N)n1 [Compound 335, (1S,2R)—N-[8-amino-6-(4-methyl-6-phenylpyridin-3-yl)-2,7-naphthyridin-3-yl]-2-(cyanomethyl)cyclopropane-1-carboxamide]
345	Cc1ccncc1-c1cc2cc(NCC(F)F)ncc2c(N)n1 [Compound 338, N6-(2,2-difluoroethyl)-3-(4-methylpyridin-3-yl)-2,7-naphthyridine-1,6-diamine]

Same assay, conditions: Table B1-2, read-out: HPK1 Ki, L = Lanth

Ki [nM]	Structure (SMILES)
0.083	Cc1cccc(F)c1-c1cc2cc(NC(=O)[C@@H]3[C@@H](C)[C@H]3c3cnn(C)c3)ncc2c(N)n1 [Compound 354, (1R,2S,3R)—N-[8-amino-6-(2-fluoro-6-methylphenyl)-2,7-naphthyridin-3-yl]-2-methyl-3-(1-methyl-1H-pyrazol-4-yl)cyclopropane-1-carboxamide]
1.8	Cc1cccc(F)c1-c1cc2cc(NC(=O)[C@H]3[C@@H](C)[C@@H]3c3cnn(C)c3)ncc2c(N)n1 [Compound 355, (1S,2S,3S)—N-[8-amino-6-(2-fluoro-6-methylphenyl)-2,7-naphthyridin-3-yl]-2-methyl-3-(1-methyl-1H-pyrazol-4-yl)cyclopropane-1-carboxamide]
2.7	Cc1cccc(F)c1-c1cc2cc(NC(=O)[C@H]3[C@H](C)[C@@H]3c3cnn(C)c3)ncc2c(N)n1 [Compound 357, (1S,2R,3S)—N-[8-amino-6-(2-fluoro-6-methylphenyl)-2,7-naphthyridin-3-yl]-2-methyl-3-(1-methyl-1H-pyrazol-4-yl)cyclopropane-1-carboxamide]
96	Cc1ccncc1-c1cc2cc(NC(=O)[C@H]3[C@@H]4CC(NS(C)(=O)=O)C[C@@H]43)ncc2c(N)n1 (stereo partly shown) [Compound 412, N-(8-amino-6-(4-methylpyridin-3-yl)-2,7-naphthyridin-3-yl)-3-(methylsulfonamido)bicyclo[3.1.0]hexane-6-carboxamide]
1.4	CC1=CN(C)C(=O)Cc2nc(Nc3cc4cc(-c5cnccc5C)nc(N)c4cn3)ccc21 [Compound 418, 2-((8-amino-6-(4-methylpyridin-3-yl)-2,7-naphthyridin-3-yl)amino)-5,7-dimethyl-7,9-dihydro-8H-pyrido[2,3-d]azepin-8-one]
0.02	Cc1cccc(F)c1-c1cc2cc(Nc3cc4n(n3)CC(=O)N(C)CC4)ncc2c(N)n1 [Compound 426, 2-((8-amino-6-(2-fluoro-6-methylphenyl)-2,7-naphthyridin-3-yl)amino)-6-methyl-5,6-dihydro-4H-pyrazolo[1,5-d][1,4]diazepin-7(8H)-one]
8	COCc1cccc(C)c1-c1cc2cc(NC(=O)[C@@H]3C[C@H]3c3cnn(C)c3)ncc2c(N)n1 [Compound 428, (1R,2R)-N-(8-amino-6-(2-(methoxymethyl)-6-methylphenyl)-2,7-naphthyridin-3-yl)-2-(1-methyl-1H-pyrazol-4-yl)cyclopropane-1-carboxamide]
